We go through 5 molecules from patent publication US20250066326A1, “BCL6 DEGRADERS AND USES THEREOF” (Dana-Farber Cancer Institute, Inc., priority 2021, published 2025).

Test [1] concerns the target T1, BCL6 (Homo sapiens, UniProt P41182).
T1 construct: endogenous in cells; host or cells: VAL cells
Briefly: BCL6 degradation immunoblot in VAL cells. It is filed as cell-based. The protocol: (§1) Inclusive of Examples 8-14, VAL cells were seeded in 6-well plates at 1×10^6 cells/well and treated with indicated concentration and time point for the indicated compounds. Total protein was extracted from cells using the RIPA buffer (Abcam) supplemented with the Halt Protease Inhibitor Cocktail (Millipore-Sigma). Samples were loaded to Invitrogen Bolt Bis -Tris Plus gels (ThermoFisher Scientific) and transferred to Invitrolon PVDF membranes (ThermoFisher Scientific) using the Invitrogen Bolt wet-gel Transfer Device. Immunodetection was performed with standard techniques. The following primary and secondary antibodies were used: anti-BCL6, β-actin, H3 (Cell Signaling Technology), and IRDye secondary antibodies at the concentration recommended by the manufacturer.
VAL cells were treated with compounds at serial concentrations of 0.1 μM, 1.0 μM, and 10 μM for 4 hours.
VAL cells were treated with 1 at serial concentrations of 0.001 μM, 0.010 μM, 0.100 μM, 1.0 μM, and 10 μM for 4 hours.
VAL cells were treated with 5 at serial concentrations of 0.001 μM, 0.010 μM, 0.100 μM, 1.0 μM, and 10 μM for 4 hours.
VAL cells were treated with 1 at 0.1 μM for 1, 2, 4, 8, and 24 hours.
VAL cells were treated with 6 at serial concentrations of 0.1 μM, 0.3 μM, 1.0 μM, 3.0 μM and 10 μM for 4 hours.
(In general: Immunoblotting shows a protein as a band on a membrane.)

Test [2] has as its target T1, BCL6. Briefly: BCL6 degradation immunoblot in DB cells. The settings on record: tested at 0.1, 1.0, 10 μM for 4 hours, compared to BI-3812 and BI-3802. It is filed as cell-based. The protocol:
as §1
DB cells were treated with compounds at serial concentrations of 0.1 μM, 1.0 μM, and 10 μM for 4 hours.

Setting [3] is: tested at 0.001, 0.010, 0.100, 1.0, 10 μM for 4 hours.
[4] abbreviates: tested at 0.1, 1.0, 10 μM for 4 hours, compared to BI-3812 and BI-3802.

Take `CNC(=O)COc1cc2cc(Nc3nc(N4CCC(C(=O)NCCCCCCNC(=O)COc5cccc6c5C(=O)N(C5CCC(=O)NC5=O)C6=O)CC4)ncc3Cl)cc(OC)c2n(C)c1=O` (centres unmarked) [compound 6, 1-(5-chloro-4-((8-methoxy-1-methyl-3-(2-(methylamino)-2-oxoethoxy)-2-oxo-1,2-dihydroquinolin-6-yl)amino)pyrimidin-2-vl)-N-(6-(2-((2-(2,6-dioxopiperidin-3-yl)-1,3-dioxoisoindolin-4-yl)oxy)acetamido)hexyl)piperidine-4-carboxamide]: the “concentration at which compound degrades BCL6 (immunoblot)” value (from here on “concentration”) on BCL6 [1] (tested at 0.1, 0.3, 1.0, 3.0, 10 μM for 4 hours) was 300 nM.
In the case of `CNC(=O)COc1cc2cc(Nc3nc(N4CCC(C(=O)NCCCCCCCCNc5cccc6c5C(=O)N(C5CCC(=O)NC5=O)C6=O)CC4)ncc3Cl)cc(OC)c2n(C)c1=O` (centres unmarked) [compound 1, 1-(5-chloro-4-((8-methoxy-1-methyl-3-(2-(methylamino)-2-oxoethoxy)-2-oxo-1,2-dihydroquinolin-6-yl)amino)pyrimidin-2-yl)-N-(8-((2-(2,6-dioxopiperidin-3-yl)-1,3-dioxoisoindolin-4-yl)amino)octyl)piperidine-4-carboxamide], the “time in which BCL6 is degraded (immunoblot)” value on BCL6 [1] (0.1 μM (100 nM), time points 1, 2, 4, 8, 24 hours) is on record as “less than 1 hour”. Moreover, the “concentration” value on BCL6 [1] (setting [3]) turned out to be 1.0 nM; at BCL6 [1] (setting [4]) it was 100 nM.
As for `CNC(=O)COc1cc2cc(Nc3nc(N4CCC(NC(=O)CCCCCCCCCCCNc5cccc6c5C(=O)N(C5CCC(=O)NC5=O)C6=O)CC4)ncc3Cl)cc(OC)c2n(C)c1=O` (centres unmarked) [compound 5, N-(1-(5-chloro-4-((8-methoxy-1-methyl-3-(2-(methylamino)-2-oxoethoxy)-2-oxo-1,2-dihydroquinolin-6-yl)amino)pyrimidin-2-yl)piperidin-4-yl)-12-((2-(2,6-dioxopiperidin-3-yl)-1,3-dioxoisoindolin-4-yl)amino)dodecanamide], the “concentration” value on BCL6 [2] is 1000 nM; on BCL6 [1] (setting [3]), 10 nM; on BCL6 [1] (setting [4]), 100 nM.
For the molecule `CNC(=O)COc1cc2cc(Nc3nc(N4CCC(C(=O)NCCOCCNc5cccc6c5C(=O)N(C5CCC(=O)NC5=O)C6=O)CC4)ncc3Cl)cc(OC)c2n(C)c1=O` (centres unmarked) [compound 4, 1-(5-chloro-4-((8-methoxy-1-methyl-3-(2-(methylamino)-2-oxoethoxy)-2-oxo-1,2-dihydroquinolin-6-yl)amino)pyrimidin-2-vl)-N-(2-(2-((2-(2,6-dioxopiperidin-3-yl)-1,3-dioxoisoindolin-4-yl)amino)ethoxy)ethyl)piperidine-4-carboxamide], the “concentration” value is 1000 nM at BCL6 [2] and 100 nM on BCL6 [1] (setting [4]).
With `CNC(=O)COc1cc2cc(Nc3nc(N4CCC(C(=O)NCCCCNc5cccc6c5C(=O)N(C5CCC(=O)NC5=O)C6=O)CC4)ncc3Cl)cc(OC)c2n(C)c1=O` (centres unmarked) [compound 3, 1-(5-chloro-4-((8-methoxy-1-methyl-3-(2-(methylamino)-2-oxoethoxy)-2-oxo-1,2-dihydroquinolin-6-yl)amino)pyrimidin-2-v1)-N-(4-((2-(2,6-dioxopiperidin-3-yl)-1,3-dioxoisoindolin-4-yl)amino)butyl)piperidine-4-carboxamide], the “concentration” value on BCL6 [2] and on BCL6 [1] (setting [4]) was 100 nM each time.
